Data taken from publication PMC10384562, “Synthesis and Structure Determination of Substituted Thiazole Derivatives as EGFR/BRAF^V600E Dual Inhibitors Endowed with Antiproliferative Activity” (Pharmaceuticals, 2023).
Like-named read-outs stand apart in the source and are kept apart here.

What was measured:
[1] = tested on: pancreatic cancer (Panc-1) cell line; assay: Antiproliferative assay, Panc-1; type: cell-based; conditions: Homo sapiens; Panc-1 pancreatic cancer cells; read-out: Antiproliferative Activity IC50 ± SEM, Panc-1
Description: (§1) 4.2.1.2. Assay for antiproliferative effect
(§2) To explore the antiproliferative potential of compounds propidium iodide fluorescence assay was performed using different cell lines such as Panc-1 (pancreas cancer cell line), MCF-7 (breast cancer cell line), HT-29 (colon cancer cell line) and A-549 (epithelial cancer cell line), respectively. To calculate the total nuclear DNA, a fluorescent dye (propidium iodide, PI) is used which can attach to the DNA, thus offering a quick and precise technique. PI cannot pass through the cell membrane and its signal intensity can be considered as directly proportional to quantity of cellular
(§3) DNA. Cells whose cell membranes are damaged or have changed permeability are counted as dead ones. The assay was performed by seeding the cells of different cell lines at a density of 3000-7500 cells/well (in200μl medium) in culture plates followed by incubation for 24h at 37 °C in humidified 5%CO2/95% air atmospheric conditions.
(§4) The medium was removed; the compounds were added to the plates at 10 μM concentrations (in 0.1% DMSO) in triplicates, followed by incubation for 48h. DMSO (0.1%) was used as control. After incubation, medium was removed followed by the addition of PI (25 μl, 50μg/mL in water/medium) to each well of the plates. At -80 °C, the plates were allowed to freeze for 24 h, followed by thawing at 25 °C. A fluorometer (Polar-Star BMG Tech) was used to record the readings at excitation and emission wavelengths of 530 and 620 nm for each well. The percentage cytotoxicity of compounds was calculated using the following formula:
(§5) Where ATC= Absorbance of treated cells and AC= Absorbance of control. Erlotinib was used as positive control in the assay.

[2] = tested on: breast cancer (MCF-7) cell line; assay: Antiproliferative assay, MCF-7; type: cell-based; conditions: Homo sapiens, MCF7; MCF-7 breast cancer cells; read-out: Antiproliferative Activity IC50 ± SEM, MCF-7
Description: as §1, §2, §3, §4, §5

[3] = tested on: colon cancer (HT-29) cell line; assay: Antiproliferative assay, HT-29; type: cell-based; conditions: Homo sapiens; HT-29 colon cancer cells; read-out: Antiproliferative Activity IC50 ± SEM, HT-29
Description: as §1, §2, §3, §4, §5

[4] = tested on: lung cancer (A-549) cell line; assay: Antiproliferative assay, A-549; type: cell-based; conditions: Homo sapiens, A549; A-549 lung cancer cells; read-out: Antiproliferative Activity IC50 ± SEM, A-549
Description: as §1, §2, §3, §4, §5
(§6) (1 picture or pasted object on this page, not shown here)

[5] = Cell viability assay (MTT) on normal mammary epithelial cells; conditions: human, MCF-10A mammary gland epithelial cells
[6] = tested on: four human cancer cell lines (A-549, MCF-7, Panc-1, HT-29); assay: Antiproliferative assay, average over four cancer cell lines (GI50); type: cell-based; conditions: for IC50: average IC50 (GI50) over A-549, MCF-7, Panc-1, HT-29; for fold less potent than compound 3f (GI50): ratio of GI50 to that of 3f
Description: as §1
To explore the antiproliferative potential of compounds propidium iodide fluorescence assay was performed using different cell lines such as Panc-1 (pancreas cancer cell […]
(epithelial cancer cell line), respectively. To calculate the total nuclear DNA, a fluorescent dye (propidium iodide, PI) is used which can attach to the DNA, thus offering a quick and precise technique. PI cannot pass through the cell membrane and its signal intensity can be considered as directly proportional to quantity of cellular
DNA. Cells whose cell membranes are damaged or have changed permeability are counted as dead ones. The assay was performed by seeding the cells of different cell lines at a density of 3000-7500 cells/well (in200μl medium) in culture plates followed […]
as §4
Where ATC= Absorbance of treated cells and AC= Absorbance of control. […]
was used as positive control in the assay.
as §6

[7] = target: T1, BRAF^V600E (Mus musculus, UniProt P28028, V585E); assay: BRAF^V600E inhibitory assay; type: biochemical; conditions: read-out: BRAF^V600E Inhibition IC50 ± SEM
T1 construct: Mouse full-length GST-tagged BRAFV600E (7.5 ng,; GST; purchased Invitrogen PV3849
Description: See Supplementary Information. […]
4.2.3. BRAFV600E inhibitory assay
V600E mutant BRAF kinase assay was performed to investigate the activity of tested compounds against BRAF. Mouse full-length GST-tagged BRAFV600E (7.5 ng, Invitrogen, PV3849) was pre-incubated with drug (1 µL) and assay dilution buffer (4 µL) for 60 min at 25 °C. In assay dilution buffer, a solution (5 µL) containing MgCl2 (30 mM), ATP (200 µM), recombinant human full length (200 ng) […] N-terminal His-tagged MEK1 (Invitrogen) was added to start the assay, subsequent to incubation for 25 min at 25 °C. The assay was stopped using 5X protein denaturing buffer (LDS) solution (5 µL). To further denature the protein, heat (70° C) was applied for 5 min. 4- […]
200 V). 10 µL of each reaction was loaded into the precast plates and electrophoresis was allowed to proceed. After completion of electrophoresis, the front part of the precast gel plate (holding hot ATP) was cut and afterwards cast-off. The dried gel was developed using a phosphor screen. A reaction without active enzyme was used as negative control while that containing no inhibitor served as positive control. […]
4.3. Statistical analysis
Computerized Prism 5 program was used to statistically analyzed data using one-way ANOVA test followed by Tukey’s as post ANOVA for multiple comparison at P ≤.05.
Data were presented as mean ± SEM.

[8] = target: T2, EGFR (Homo sapiens, UniProt P00533); assay: EGFR-TK inhibitory assay; type: biochemical; conditions: for fold less potent than erlotinib (EGFR IC50): ratio of EGFR IC50 to that of erlotinib; for IC50: read-out: EGFR Inhibition IC50 ± SEM
T2 construct: CD, amino acids 645–1186); His6 (N); made in house; host or cells: Sf-9 insect cells (baculovirus; pBlueBacHis2B / pFASTBacHTc
Description: 4.2.2. EGFR inhibitory assay
Baculoviral expression vectors including pBlueBacHis2B and pFASTBacHTc were […]
5ʹ upstream to the EGFR sequence comprised a sequence that encoded (His)6. Sf-9 cells were infected for 72h for protein expression. The pellets of Sf-9 cells were solubilized in a buffer containing sodium vanadate (100 μM), aprotinin (10 μg/mL), triton (1%), HEPES buffer(50mM), ammonium molybdate (10 μM), benzamidine HCl (16 μg/mL), NaCl (10 mM),leupeptin (10 μg/mL) and pepstatin (10 μg/mL) at 0°C for 20 min at pH 7.4, followed by centrifugation for 20 min. To eliminate the nonspecifically bound material, a Ni-NTA super flow packed column was used to pass through and wash the crude extract supernatant first with 10mM and then with 100 mM imidazole. Histidine-linked proteins were first eluted with 250 and then with 500 mM imidazole subsequent to dialysis against NaCl (50 mM), HEPES (20 mM), glycerol (10%) and 1 μg/mL each of aprotinin, leupeptin and pepstatin for 120 min. The purification was performed either at 4 °C or on ice. To record autophosphorylation level, EGFR kinase assay was carried out on the basis of DELFIA/Time-Resolved Fluorometry. The compounds were first dissolved in DMSO […]
pH 7.4. Each compound (10 μL) was incubated with recombinant enzyme (10 μL, 5 ng for EGFR, 1:80 dilution in 100 mM HEPES) for 10 min at 25 °C, subsequent to the addition of 5X buffer (10 μL, containing 2 mM MnCl2, 100 μM Na3VO4, 20 mM HEPES and 1 mM DTT) and ATP-MgCl2 (20 μL, containing 0.1 mM ATP and 50 mM MgCl2) and incubation for 1h. The negative and positive controls were included in each plate by the incubation of enzyme either with or without ATP-MgCl2. The liquid was removed after incubation and the plates were washed thrice using wash buffer.
Europium-tagged antiphosphotyrosine antibody (75 μL, 400 ng) was added to each well followed by incubation of 1h and then washing of the plates using buffer. The enhancement solution was added to each well and the signal was recorded at excitation […]
The autophosphorylation percentage inhibition by compounds was calculated using the following equation: […]

[9] = in vitro; conditions: human
[10] = target: T2, EGFR; set-up: method as in doi:10.1016/j.arabjc.2023.104612; conditions: ref [36]; cited from earlier work
[11] = tested on: four evaluated cancer cell lines; set-up: method as in doi:10.1016/j.arabjc.2023.104612; conditions: ref [36]; read-out: GI50 against the four evaluated cancer cell lines; cited from earlier work

T1 sequence (P28028 whole entry V585E): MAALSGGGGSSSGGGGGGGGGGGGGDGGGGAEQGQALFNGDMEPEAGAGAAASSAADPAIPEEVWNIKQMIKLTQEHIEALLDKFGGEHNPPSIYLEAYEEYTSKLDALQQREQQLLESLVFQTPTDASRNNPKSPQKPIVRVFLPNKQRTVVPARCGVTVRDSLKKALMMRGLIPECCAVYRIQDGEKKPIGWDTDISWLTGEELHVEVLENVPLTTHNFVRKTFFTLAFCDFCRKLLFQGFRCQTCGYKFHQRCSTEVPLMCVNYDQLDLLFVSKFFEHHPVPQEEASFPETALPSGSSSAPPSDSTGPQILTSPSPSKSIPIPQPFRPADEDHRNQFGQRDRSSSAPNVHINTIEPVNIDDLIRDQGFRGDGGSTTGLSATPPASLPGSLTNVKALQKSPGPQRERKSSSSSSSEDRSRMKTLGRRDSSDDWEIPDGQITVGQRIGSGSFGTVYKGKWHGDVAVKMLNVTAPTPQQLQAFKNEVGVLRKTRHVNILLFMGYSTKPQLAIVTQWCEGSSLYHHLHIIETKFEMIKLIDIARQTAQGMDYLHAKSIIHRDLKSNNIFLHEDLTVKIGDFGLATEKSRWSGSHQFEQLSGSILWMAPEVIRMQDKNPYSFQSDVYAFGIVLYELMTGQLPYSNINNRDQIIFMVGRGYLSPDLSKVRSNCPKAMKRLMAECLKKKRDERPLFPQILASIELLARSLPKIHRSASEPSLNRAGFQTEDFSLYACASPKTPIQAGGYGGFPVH
T2 sequence (P00533 669-1210): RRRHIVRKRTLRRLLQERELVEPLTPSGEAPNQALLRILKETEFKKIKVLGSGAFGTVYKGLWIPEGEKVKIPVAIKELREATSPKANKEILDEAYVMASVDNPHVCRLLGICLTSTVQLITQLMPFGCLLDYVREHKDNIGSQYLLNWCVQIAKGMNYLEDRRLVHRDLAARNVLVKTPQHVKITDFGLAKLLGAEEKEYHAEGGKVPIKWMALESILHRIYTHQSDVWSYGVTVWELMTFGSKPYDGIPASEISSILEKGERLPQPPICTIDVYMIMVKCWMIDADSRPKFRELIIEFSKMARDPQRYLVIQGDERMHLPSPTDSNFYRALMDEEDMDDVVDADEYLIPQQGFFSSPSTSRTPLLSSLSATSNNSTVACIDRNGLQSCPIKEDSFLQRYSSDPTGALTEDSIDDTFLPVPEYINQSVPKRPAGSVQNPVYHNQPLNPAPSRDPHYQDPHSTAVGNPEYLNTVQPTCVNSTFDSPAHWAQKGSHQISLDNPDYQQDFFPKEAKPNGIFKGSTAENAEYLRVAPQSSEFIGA

| Compound | IC50 [1] [nM] | IC50 [2] [nM] | IC50 [3] [nM] | IC50 [4] [nM] | melting point [°C] | viability at 96 h, 50 µM [5] [%] | IC50 ([6]; Homo sapiens) [nM] | IC50 [7] [nM] | fold less potent than erlotinib (EGFR IC50) [8] [fold] | IC50 [8] [nM] | fold less potent than compound 3f (GI50) [6] [fold] | viability at 96 h, 50 µM [9] [%] | IC50 [10] [nM] | GI50 [11] [nM] | IC50 [6] [nM] |
| --- | --- | --- | --- | --- | --- | --- | --- | --- | --- | --- | --- | --- | --- | --- | --- |
| Cc1cs/c(=N\Nc2ccc([N+](=O)[O-])cc2[N+](=O)[O-])n1Cc1ccccc1 [Compound 3a, (Z)-3-Benzyl-2-(2-(2,4-Dinitrophenyl)Hydrazineylidene)-4-Methyl-2,3-Dihydrothiazole] | 48 ± 4 | 49 ± 4 | 48 ± 4 | 45 ± 4 | 215 to 217 | 89 | 48 | 117 ± 10 | 1.15 | 93 ± 8 |  |  |  |  |  |
| Cc1cs/c(=N\Nc2ccc([N+](=O)[O-])cc2[N+](=O)[O-])n1-c1ccccc1 [Compound 3e, (Z)-2-(2-(2,4-Dinitrophenyl)Hydrazineylidene)-4-Methyl-3-Phenyl-2,3-Dihydrothiazole] | 72 ± 7 | 74 ± 7 | 72 ± 7 | 71 ± 7 |  |  | 72 |  |  |  | 2 | 87 |  |  |  |
| C=CCn1c(C)cs/c1=N\NS(=O)(=O)c1ccc(C)cc1 [Compound 3h, (Z)-N′-(3-Allyl-4-Methylthiazol-2(3H)-Ylidene)-4-Methyl Benzenesulfonohydrazide] | 65 ± 6 | 68 ± 6 | 65 ± 6 | 63 ± 6 | 236 to 238 | 92 | 65 |  |  |  |  |  |  |  |  |
| Cc1cs/c(=N/Nc2ccc([N+](=O)[O-])cc2[N+](=O)[O-])n1C1CCCCC1 [Compound 3d, (Z)-3-Cyclohexyl-2-(2-(2,4-Dinitrophenyl)Hydrazineylidene)-4-Methyl-2,3-Dihydrothi-Azole] | 46 ± 4 | 47 ± 4 | 46 ± 4 | 43 ± 4 |  | 92 | 46 | 112 ± 10 | 1.15 | 91 ± 7 | 1.3 |  |  |  |  |
| COc1cccc(-n2c(-c3ccccc3)cs/c2=N\c2c[nH]c(=O)[nH]c2=O)c1 [Compound V] |  |  |  |  |  |  |  |  |  |  |  |  | 74 ± 7 | 900 |  |
| CCn1c(C)cs/c1=N\Nc1ccc([N+](=O)[O-])cc1[N+](=O)[O-] [Compound 3b, (Z)-2-(2-(2,4-Dinitrophenyl)Hydrazineylidene)-3-Ethyl-4-Methyl-2,3-Dihydrothiazole] | 80 ± 8 | 82 ± 8 | 80 ± 8 | 78 ± 7 |  |  | 80 |  |  |  | 2.2 | 91 |  |  |  |
| CCn1c(C)cs/c1=N\NS(=O)(=O)c1ccc(C)cc1 [Compound 3i, (Z)-N′-(3-Ethyl-4-Methylthiazol-2(3H)-Ylidene)-4-Methyl Benzenesulfonohydrazide] | 86 ± 8 | 89 ± 8 | 86 ± 8 | 84 ± 8 | 236 to 238 | 95 | 86 |  |  |  |  |  |  |  |  |
| C=CCn1c(C)cs/c1=N\Nc1ccc([N+](=O)[O-])cc1[N+](=O)[O-] [Compound 3c, (Z)-3-Allyl-2-(2-(2,4-Dinitrophenyl)Hydrazineylidene)-4-Methyl-2,3-Dihydrothiazole] | 54 ± 5 | 56 ± 5 | 54 ± 5 | 50 ± 5 | 197 to 198 | 90 | > 50 | 126 ± 11 |  | 98 ± 9 |  |  |  |  | 54 |
| Cc1ccc(S(=O)(=O)N/N=c2\scc(C)n2-c2ccccc2)cc1 [Compound 3g, (Z)-4-Methyl-N′-(4-Methyl-3-Phenylthiazol-2(3H)-Ylidene) Benzenesulfonohydrazide] | 60 ± 6 | 63 ± 6 | 58 ± 5 | 58 ± 5 | 193 to 194 | 90 | 60 |  |  |  |  |  |  |  |  |
| C#Cc1cccc(Nc2ncnc3cc(OCCOC)c(OCCOC)cc23)c1 [Erlotinib, reference compound] | 30 ± 3 | 40 ± 3 | 30 ± 3 | 30 ± 3 |  |  |  |  |  |  |  |  |  |  |  |
| Cc1ccc(-n2c(C)cs/c2=N/Nc2ccc([N+](=O)[O-])cc2[N+](=O)[O-])cc1 [Compound 3f, (Z)-2-(2-(2,4-Dinitrophenyl)Hydrazineylidene)-4-Methyl-3-(p-Tolyl)-2,3-Dihydrothi-Azole] | 37 ± 3 | 40 ± 3 | 37 ± 3 | 35 ± 3 |  |  | 37 | 93 ± 8 | 1.1 | 89 ± 7 |  | 89 |  |  |  |
